Source: US6358941B1, “Treatment of arthritis disorders, rheumatoid arthritis and manifestations associated with rheumatoid disorders” (priority 1996, dated 2002)
Counter-ions that a name gives are not always drawn.

Tests used:
[1] = in vivo; cited from earlier work
[2] = tested on: haemolysate cholinesterase (erythrocyte acetylcholinesterase); assay: Cholinesterase activity in haemolysed whole blood (Sigma Diagnostics Cholinesterase (PTC) kit); assay type: biochemical, human; details: 0 to 2.5 μg/ml added in vitro
Description: (§1) SIGMA DIAGNOSTICS® CHOLINESTERASE (PTC) kit, available from Sigma Diagnostics, can be used for determining the activity and selectivity of cholinesterase inhibitors.
(§2) Reactions involved in the cholinesterase assay are as follows:
(§3) Propionylthiocholine+H2O→Propionic Acid+Thiocholine
(§4) Thiocholine+5, 5′-Dithiobis-2-Nitrobenzoic Acid→5-Thio-2-Nitrobenzoic Acid
(§5) 5-Thio-2-Nitrobenzoic Acid is assessed by measuring the absorbance at 405 nm. The rate of change in absorbance at 405 nm is directly proporational to cholinesterase activity.
(§6) The activity of erythrocyte cholinesterase may be calculated on the basis of the measurement of butyrylcholinesterase (pseudocholinesterase) in serum and cholinesterase in haemolyzed whole blood (haemolysate), both measured simultaneously by the method described above, and evaluated according to the haematocrit value according to the formula
HChE=(EChE×Hctg*)+(PChE×(1-Hct*))
In the above formulae, EChE is erythrocyte cholinesterase activity, PChE is plasma cholinesterase activity, HChE is haemolysate cholinesterase activity, and Hct is haematocrit value of the sample.
Another way of assessing the cholinesterase activity is to measure the plasma cholinesterase and the cholinesterase in purified haemolyzed erythrocytes. By doing this, the values are obtained directly.
Blood samples from 3 patients were tested with the Sigma test. […]

[3] = tested on: patient with Rheumatoid Arthritis and anaemia; assay: Treatment of a patient with anaemia of chronic disorder (Example 6); assay type: in vivo, human
Description: The patient was treated in the period between Jan. 3, 1997 and Jan. 20, 1997.

[4] = tested on: patients with osteoarthritis; assay: Treatment of patients with osteoarthritis (Example 5); assay type: in vivo, human
[5] = biological target: T1, butyrylcholinesterase (pseudocholinesterase) in serum (Homo sapiens, UniProt P06276); assay: Cholinesterase activity in serum (Sigma Diagnostics Cholinesterase (PTC) kit); assay type: biochemical; details: 0 to 2.5 μg/ml added in vitro
T1 construct: butyrylcholinesterase (pseudocholinesterase) in serum; from tissue; host or cells: serum of patients
Description: as §1, §2, §3, §4, §5, §6
Blood samples from 3 patients were tested with the Sigma test. […] The results are shown below in table 1.1.

[6] = tested on: patients suffering from different arthritic disorders of rheumatoid origin; assay: Treatment of patients with rheumatoid diseases (Example 7); assay type: in vivo, human
From the text: Stiffness: Joint stiffness is a complaint covering sensations which range from slight resistance to all movements through the normal range, to blocking of certain movements due to fixed anatomical changes. Certain types of stiffness are highly characteristic, such as early morning stiffness.
Early morning stiffness occurs primarily in rheumatoid arthritis, but also in other arthritic diseases. The patient awakes with distressing, painful stiffness of all affected joints. This is gradually “worked off ” by activity over one half to three hours or more. This “limbering up time” provides a reliable measure of inflammatory activity. In osteoarthritis stiffness tends to come on later in the day and is preceded by activity.
In one of the examples given of rheumatoid patients on galantamine, the parameters evaluated were tiredness, sleep, pain, and stiffness. […] All these parameters were evaluated with a questionaire and VAS (Visual Analogue Scale) which refer to the patients' reporting as regards the severity of the symptoms, represented by a 0-100 percentage line.

[7] = humans; cited from earlier work
[8] = room temperature; galantamine and its acid addition salts; cited from earlier work

T1 sequence (P06276 29-602): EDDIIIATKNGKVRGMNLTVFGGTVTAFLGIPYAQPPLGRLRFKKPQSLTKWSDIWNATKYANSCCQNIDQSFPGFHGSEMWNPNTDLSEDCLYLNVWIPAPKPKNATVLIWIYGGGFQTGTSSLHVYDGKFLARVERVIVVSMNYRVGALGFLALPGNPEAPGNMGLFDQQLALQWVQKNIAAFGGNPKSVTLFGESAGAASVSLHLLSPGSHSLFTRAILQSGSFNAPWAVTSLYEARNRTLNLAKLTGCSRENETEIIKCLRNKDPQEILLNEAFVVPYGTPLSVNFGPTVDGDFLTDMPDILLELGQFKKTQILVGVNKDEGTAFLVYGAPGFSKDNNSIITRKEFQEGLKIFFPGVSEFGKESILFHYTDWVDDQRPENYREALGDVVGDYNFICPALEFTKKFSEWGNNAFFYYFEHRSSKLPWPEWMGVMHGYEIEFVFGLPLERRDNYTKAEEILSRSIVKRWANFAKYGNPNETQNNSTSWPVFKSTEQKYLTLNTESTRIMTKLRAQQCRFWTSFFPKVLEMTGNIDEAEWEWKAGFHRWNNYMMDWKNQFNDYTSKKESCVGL

Row | SMILES | elimination half life [1] | Change of haemolysate cholinesterase activity with increased concentration [2] | laboratory blood tests reflecting anaemia ([3]; 15 mg per day (3 x 5 mg orally), after 14 days) | joint pain symptoms, second patient ([4]; 10 mg per day (2 x 5 mg tablets), after three days, osteoarthritis not diagnosed) | osteoarthritis symptoms, first volunteer ([4]; 10 mg per day orally (2 x 5 mg), after seven days, maintained over 31 days, dose raised to 30 mg per day) | symptoms when medication was discontinued, first volunteer ([4]; after 31 day period) | Change of serum cholinesterase activity as response to addition [5] | patients reporting a significant improvement in their symptoms ([6]; 13 patients, patient numbers 1, 2, 3, 5, 9, 10 and 12) [%] | augmentation of grip strength ([6]; one RA patient (patient number 1)) | passing the blood-brain barrier [7] | solubility in water [8] | Haematocrit ([3]; 20-1-97, after treatment with 15 mg per day orally, normal 0.360-0.470, 0.342 on 3-1-97) [L/L] | White cells ([3]; 20-1-97, after treatment with 15 mg per day orally, normal 3.8-10.2, 6.6 on 3-1-97) [L⁻¹] | Red cells ([3]; 20-1-97, after treatment with 15 mg per day orally, normal 4.00-5.8, 3.72 on 3-1-97) [L⁻¹] | Haemoglobin ([3]; 20-1-97, after treatment with 15 mg per day orally, normal 118-158, 115 on 3-1-97) [g/L]
1 | COc1ccc2c3c1O[C@H]1C[C@@H](O)C=C[C@@]31CCN(C)C2 [galantamine hydrobromide] | over four | significant reduction | significant improvement | improvement in symptoms | improvement in osteoarthritis symptoms | Symptoms were reported to recur | do not show any statistically significant changes | – | – | – | – | – | – | – | –
2 | COc1ccc2c3c1O[C@H]1C[C@@H](O)C=C[C@@]31CCN(C)C2 [galantamine] | – | – | – | – | – | – | – | 50 | over 50% | capable of passing the blood-brain barrier | only sparingly soluble | 0.362 | 5.9e+09 | 3.94e+12 | 124
